The values below come from ChEMBL document CHEMBL5463725, “Data for DCP probe BAY-277” (2023).

In data set [1] the target is T1, Sigma intracellular receptor 2 (Homo sapiens, UniProt Q5BJF2). As to the kind of experiment: GPCRScan assay: inhibition of Sigma 2. Set-up: radioligand conc. used [nm] 5.0, parental cells HEKT.
In data set [2] the target is Carbonic anhydrase 2 (Homo sapiens) (UniProt P00918). As to the kind of experiment: Inhibition of Carbonic Anhydrase II at 10.0 µM in the Eurofins Panlabs Safety Screen. The conditions noted are these: Compound concentration 10.0 uM.
The target in data set [3] is Leukotriene C4 synthase (Cavia porcellus) (UniProt A6XA80). Briefly: Inhibition of Leukotriene LTC4 Synthase at 10.0 µM in the Eurofins Panlabs Safety Screen. The conditions noted are these: Compound concentration 10.0 uM.
Sequence of Leukotriene C4 synthase (Cavia porcellus) (A6XA80 whole entry): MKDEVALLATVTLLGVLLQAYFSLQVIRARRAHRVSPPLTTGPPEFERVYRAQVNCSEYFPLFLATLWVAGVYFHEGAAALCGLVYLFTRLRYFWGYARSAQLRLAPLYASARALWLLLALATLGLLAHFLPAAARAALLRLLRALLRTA
Data set [4] concerns the target Monoamine oxidase A (MAO-A) (Homo sapiens, UniProt P21397). Briefly: Inhibition of Monoamine Oxidase MAO-A at 10.0 µM in the Eurofins Panlabs Safety Screen. The settings on record: compound concentration 10 uM.
Data set [5] addresses Beta-1 adrenergic receptor (Homo sapiens) (UniProt P08588). Briefly: Inhibition of Adrenergic beta1 at 10.0 µM in the Eurofins Panlabs Safety Screen. The conditions noted are these: Compound concentration 10.0 uM.
For data set [6], the target named is Motilin receptor (Homo sapiens) (UniProt O43193). As to the kind of experiment: Inhibition of Motilin at 10.0 µM in the Eurofins Panlabs Safety Screen. The conditions noted are these: Compound concentration 10.0 uM.
Sequence of Motilin receptor (Homo sapiens) (O43193 whole entry): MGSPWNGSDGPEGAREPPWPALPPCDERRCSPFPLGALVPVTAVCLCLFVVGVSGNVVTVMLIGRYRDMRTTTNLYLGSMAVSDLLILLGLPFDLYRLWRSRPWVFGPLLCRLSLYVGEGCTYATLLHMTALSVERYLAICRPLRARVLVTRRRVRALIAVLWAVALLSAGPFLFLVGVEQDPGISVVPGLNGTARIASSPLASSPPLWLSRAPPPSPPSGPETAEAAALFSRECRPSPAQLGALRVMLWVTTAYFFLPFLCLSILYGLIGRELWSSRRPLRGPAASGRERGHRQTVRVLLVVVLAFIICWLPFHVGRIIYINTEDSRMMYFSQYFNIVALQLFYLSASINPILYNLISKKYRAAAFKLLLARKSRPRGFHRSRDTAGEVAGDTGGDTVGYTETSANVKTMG
Data set [7] has as its target T2, Muscarinic acetylcholine receptor M3 (Homo sapiens, UniProt P20309). Briefly: Inhibition of Muscarinic M3 at 10.0 µM in the Eurofins Panlabs Safety Screen. The conditions noted are these: Compound concentration 10.0 uM.
Data set [8] addresses Sodium-dependent noradrenaline transporter (Homo sapiens) (UniProt P23975). Briefly: Inhibition of Transporter, Norepinephrine (NET) at 10.0 µM in the Eurofins Panlabs Safety Screen. The conditions noted are these: Compound concentration 10.0 uM.
Data set [9] has as its target D(4) dopamine receptor (Homo sapiens) (UniProt P21917). The settings on record: Compound concentration 10.0 uM.
The target of data set [10] is Mu-type opioid receptor (Homo sapiens) (UniProt P35372). The settings on record: Compound concentration 10.0 uM.
Sequence of Mu-type opioid receptor (Homo sapiens) (P35372 whole entry): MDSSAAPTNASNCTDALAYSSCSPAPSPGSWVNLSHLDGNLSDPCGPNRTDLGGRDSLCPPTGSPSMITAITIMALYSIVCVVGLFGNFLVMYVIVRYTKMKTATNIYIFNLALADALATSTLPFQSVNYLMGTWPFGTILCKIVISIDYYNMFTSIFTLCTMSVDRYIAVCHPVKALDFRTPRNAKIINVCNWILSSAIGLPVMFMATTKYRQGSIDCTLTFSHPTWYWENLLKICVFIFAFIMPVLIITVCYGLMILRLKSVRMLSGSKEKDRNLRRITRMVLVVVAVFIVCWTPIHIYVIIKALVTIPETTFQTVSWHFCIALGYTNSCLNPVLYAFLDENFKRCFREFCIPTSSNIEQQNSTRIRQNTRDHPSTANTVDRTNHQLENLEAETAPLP
The target of data set [11] is T3, Alpha-2A adrenergic receptor (Homo sapiens) (UniProt P08913).
T3 sequence (whole entry): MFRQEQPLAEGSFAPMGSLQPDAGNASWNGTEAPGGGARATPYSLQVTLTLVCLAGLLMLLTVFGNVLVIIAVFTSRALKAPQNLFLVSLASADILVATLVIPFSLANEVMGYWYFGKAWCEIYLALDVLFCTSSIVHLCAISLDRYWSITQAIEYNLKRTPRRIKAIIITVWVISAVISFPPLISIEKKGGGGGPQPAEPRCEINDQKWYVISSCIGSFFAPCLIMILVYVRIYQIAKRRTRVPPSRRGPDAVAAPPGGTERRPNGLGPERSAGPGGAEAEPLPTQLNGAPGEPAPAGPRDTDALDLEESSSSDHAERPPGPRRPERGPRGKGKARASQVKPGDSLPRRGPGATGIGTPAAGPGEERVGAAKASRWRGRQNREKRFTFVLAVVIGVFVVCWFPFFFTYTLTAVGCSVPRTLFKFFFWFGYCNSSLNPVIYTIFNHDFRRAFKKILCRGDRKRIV
The settings on record: Compound concentration 10.0 uM.

In data set [12] the target is T4, Alpha-2C adrenergic receptor (Homo sapiens) (UniProt P18825).
T4 sequence (whole entry): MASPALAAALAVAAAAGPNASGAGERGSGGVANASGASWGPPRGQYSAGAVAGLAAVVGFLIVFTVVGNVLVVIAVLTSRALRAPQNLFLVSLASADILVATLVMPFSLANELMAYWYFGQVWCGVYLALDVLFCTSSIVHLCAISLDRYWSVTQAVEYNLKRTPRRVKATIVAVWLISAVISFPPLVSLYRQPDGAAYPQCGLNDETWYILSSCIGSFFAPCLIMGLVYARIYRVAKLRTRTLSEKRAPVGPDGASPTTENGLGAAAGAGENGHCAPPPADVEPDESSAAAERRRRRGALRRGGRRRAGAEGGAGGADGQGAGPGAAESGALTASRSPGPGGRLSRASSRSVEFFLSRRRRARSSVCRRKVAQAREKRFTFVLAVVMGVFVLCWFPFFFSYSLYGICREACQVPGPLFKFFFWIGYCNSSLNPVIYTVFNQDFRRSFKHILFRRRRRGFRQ
The settings on record: Compound concentration 10.0 uM.

In data set [13] the target is T5, Muscarinic acetylcholine receptor M1 (Homo sapiens) (UniProt P11229).
T5 sequence (whole entry): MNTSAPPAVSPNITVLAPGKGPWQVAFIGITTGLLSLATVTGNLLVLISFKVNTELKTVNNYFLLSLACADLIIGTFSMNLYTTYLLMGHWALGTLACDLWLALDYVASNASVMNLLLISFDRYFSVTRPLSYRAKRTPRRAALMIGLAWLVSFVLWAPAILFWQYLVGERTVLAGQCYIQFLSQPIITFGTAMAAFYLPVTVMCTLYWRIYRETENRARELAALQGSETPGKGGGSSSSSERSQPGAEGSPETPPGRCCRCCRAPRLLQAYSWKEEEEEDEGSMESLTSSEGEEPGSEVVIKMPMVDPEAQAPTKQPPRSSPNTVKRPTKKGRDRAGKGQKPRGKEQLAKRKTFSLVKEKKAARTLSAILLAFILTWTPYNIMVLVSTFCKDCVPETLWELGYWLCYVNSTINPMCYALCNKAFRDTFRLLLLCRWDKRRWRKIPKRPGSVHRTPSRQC
The settings on record: Compound concentration 10.0 uM.

Data set [14] deals with T2, Muscarinic acetylcholine receptor M3. The conditions noted are these: Compound concentration 10.0 uM.
Data set [15] concerns the target T6, Muscarinic acetylcholine receptor M4 (Homo sapiens) (UniProt P08173).
T6 sequence (whole entry): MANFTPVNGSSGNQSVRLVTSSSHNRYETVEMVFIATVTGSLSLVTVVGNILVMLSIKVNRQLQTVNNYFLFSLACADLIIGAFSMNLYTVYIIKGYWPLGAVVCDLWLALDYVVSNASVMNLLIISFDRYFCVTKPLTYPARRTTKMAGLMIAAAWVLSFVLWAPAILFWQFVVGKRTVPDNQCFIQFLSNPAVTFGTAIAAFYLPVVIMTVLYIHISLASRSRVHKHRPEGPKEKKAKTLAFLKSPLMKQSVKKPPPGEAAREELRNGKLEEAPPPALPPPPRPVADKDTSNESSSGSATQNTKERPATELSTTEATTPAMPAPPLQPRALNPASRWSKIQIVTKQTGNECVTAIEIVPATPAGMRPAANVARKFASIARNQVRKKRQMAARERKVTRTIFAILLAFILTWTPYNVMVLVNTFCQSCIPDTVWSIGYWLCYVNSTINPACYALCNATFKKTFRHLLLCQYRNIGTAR
The conditions noted are these: Compound concentration 10.0 uM.

For data set [16], the target named is GABA-A receptor; anion channel (Rattus norvegicus) (UniProt O09028+P15431+P18506+P18508+P19969+P20236+P23574+P23576+P28471+P28473+P30191+P62813+P63079+P63138+Q91ZM7+Q9ES14). The settings on record: Compound concentration 10.0 uM.
Data set [17] addresses T1, Sigma intracellular receptor 2. The settings on record: Compound concentration 10.0 uM.

SMILES strings stand for the structures.

Sequence of D(4) dopamine receptor (Homo sapiens) (P21917 whole entry): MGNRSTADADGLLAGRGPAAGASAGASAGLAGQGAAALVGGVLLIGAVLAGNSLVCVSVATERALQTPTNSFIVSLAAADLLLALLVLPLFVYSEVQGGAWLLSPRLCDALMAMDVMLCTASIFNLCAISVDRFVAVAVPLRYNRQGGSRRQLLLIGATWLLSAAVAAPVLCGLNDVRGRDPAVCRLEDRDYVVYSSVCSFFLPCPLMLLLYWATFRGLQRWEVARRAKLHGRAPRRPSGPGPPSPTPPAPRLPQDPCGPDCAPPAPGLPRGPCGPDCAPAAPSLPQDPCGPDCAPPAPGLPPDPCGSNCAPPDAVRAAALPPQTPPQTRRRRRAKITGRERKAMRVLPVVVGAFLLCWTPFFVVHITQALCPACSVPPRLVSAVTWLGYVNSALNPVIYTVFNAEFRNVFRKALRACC
T1 sequence (Q5BJF2 whole entry): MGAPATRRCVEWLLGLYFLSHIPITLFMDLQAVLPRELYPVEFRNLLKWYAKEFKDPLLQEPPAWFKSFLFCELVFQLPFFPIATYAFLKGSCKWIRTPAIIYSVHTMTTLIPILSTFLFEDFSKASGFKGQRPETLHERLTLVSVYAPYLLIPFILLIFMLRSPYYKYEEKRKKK
T2 sequence (P20309 whole entry, looked up): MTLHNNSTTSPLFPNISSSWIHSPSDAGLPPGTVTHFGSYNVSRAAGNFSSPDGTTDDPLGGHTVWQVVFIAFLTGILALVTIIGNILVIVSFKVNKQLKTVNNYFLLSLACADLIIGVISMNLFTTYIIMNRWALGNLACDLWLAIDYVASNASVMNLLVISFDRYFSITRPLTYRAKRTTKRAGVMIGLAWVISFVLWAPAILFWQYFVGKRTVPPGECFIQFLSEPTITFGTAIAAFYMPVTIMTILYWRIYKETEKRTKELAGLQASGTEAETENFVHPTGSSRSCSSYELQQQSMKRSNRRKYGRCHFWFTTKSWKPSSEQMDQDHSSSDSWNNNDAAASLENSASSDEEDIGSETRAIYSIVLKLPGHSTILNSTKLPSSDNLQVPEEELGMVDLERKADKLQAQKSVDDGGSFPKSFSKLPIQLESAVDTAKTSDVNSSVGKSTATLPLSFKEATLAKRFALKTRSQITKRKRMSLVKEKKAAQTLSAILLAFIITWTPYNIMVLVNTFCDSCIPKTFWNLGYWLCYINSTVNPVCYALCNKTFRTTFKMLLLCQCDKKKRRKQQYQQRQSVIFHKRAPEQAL
Sequence of Beta-1 adrenergic receptor (Homo sapiens) (P08588 whole entry, looked up): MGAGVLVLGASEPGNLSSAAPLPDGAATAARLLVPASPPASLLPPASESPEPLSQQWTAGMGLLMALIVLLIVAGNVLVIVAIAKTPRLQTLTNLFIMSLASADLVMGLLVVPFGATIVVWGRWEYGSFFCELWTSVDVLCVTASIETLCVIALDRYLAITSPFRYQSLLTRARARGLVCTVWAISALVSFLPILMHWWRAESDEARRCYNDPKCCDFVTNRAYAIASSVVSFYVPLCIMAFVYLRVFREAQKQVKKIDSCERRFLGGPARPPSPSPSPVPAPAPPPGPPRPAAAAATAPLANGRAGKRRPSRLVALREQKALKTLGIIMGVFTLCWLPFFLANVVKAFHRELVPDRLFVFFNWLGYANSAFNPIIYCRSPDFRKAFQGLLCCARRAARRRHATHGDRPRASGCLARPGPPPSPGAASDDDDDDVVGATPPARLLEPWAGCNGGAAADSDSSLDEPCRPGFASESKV
Sequence of Monoamine oxidase A (MAO-A) (P21397 whole entry): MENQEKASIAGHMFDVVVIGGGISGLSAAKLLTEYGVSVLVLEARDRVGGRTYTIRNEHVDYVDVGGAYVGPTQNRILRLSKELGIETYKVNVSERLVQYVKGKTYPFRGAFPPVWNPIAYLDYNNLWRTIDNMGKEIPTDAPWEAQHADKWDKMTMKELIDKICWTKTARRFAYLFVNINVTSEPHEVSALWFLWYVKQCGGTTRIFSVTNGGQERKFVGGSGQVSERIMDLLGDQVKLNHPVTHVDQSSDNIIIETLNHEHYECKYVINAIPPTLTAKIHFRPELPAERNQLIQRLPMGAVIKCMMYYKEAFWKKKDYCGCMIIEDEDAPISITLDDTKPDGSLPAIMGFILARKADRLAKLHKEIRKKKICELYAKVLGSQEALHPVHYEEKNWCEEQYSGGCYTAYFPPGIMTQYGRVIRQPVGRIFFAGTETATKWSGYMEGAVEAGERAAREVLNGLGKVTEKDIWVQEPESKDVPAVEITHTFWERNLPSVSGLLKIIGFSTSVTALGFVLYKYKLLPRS
Sequence of Sodium-dependent noradrenaline transporter (Homo sapiens) (P23975 whole entry): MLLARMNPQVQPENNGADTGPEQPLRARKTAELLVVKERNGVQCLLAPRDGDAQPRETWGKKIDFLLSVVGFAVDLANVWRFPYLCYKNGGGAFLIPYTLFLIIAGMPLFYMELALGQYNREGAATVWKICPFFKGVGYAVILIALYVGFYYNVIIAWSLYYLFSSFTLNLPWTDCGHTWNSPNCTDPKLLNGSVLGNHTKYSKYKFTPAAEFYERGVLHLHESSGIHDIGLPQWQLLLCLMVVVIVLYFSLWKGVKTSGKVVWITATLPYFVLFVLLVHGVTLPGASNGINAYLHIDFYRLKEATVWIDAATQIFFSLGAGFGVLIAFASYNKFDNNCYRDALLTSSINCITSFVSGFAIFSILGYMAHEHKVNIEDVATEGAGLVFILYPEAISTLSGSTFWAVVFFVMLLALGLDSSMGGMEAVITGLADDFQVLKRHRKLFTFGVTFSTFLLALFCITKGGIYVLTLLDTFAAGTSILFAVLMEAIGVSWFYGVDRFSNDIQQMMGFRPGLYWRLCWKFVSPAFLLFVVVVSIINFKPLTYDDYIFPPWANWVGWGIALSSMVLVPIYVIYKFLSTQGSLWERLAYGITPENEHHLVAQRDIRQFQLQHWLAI

As to `O=C1NCCCC1N1Cc2cc(C3CCN(C(=O)CCCCCN4CCC(c5ccc(Oc6nn7cnnc7c7c6CCCC7)cc5)CC4)CC3)ccc2C1=O` (stereo unspecified), the results for the Ki in data set [1] (read-out: Ki) and in data set [1] (read-out: pKi (converted)) were 1.14 µM and 0.977 µM, respectively. The inhibition in data set [2] is -8%; in data set [3] it was 15%; in data set [5], 10%; in data set [6] it was 10%; in data set [7], 29%; in data set [8], 15%. Further, the inhibition in data set [9] is 19.1%; in data set [10], 13.8%; in [11], 29.3%; in [12], 27.5%; in data set [13] it was 60.4%; in [14] it was 51.5%. The inhibition in data set [15] is 76.1%; in [16], 44.6%; in [17], 76.4%. In addition, the inhibition at 10 µM in data set [4] was 18%.

`O=C1CCC(N2Cc3cc(C4CCN(C(=O)CCCCCN5CCC(c6ccc(Oc7nn8cnnc8c8c7CCCC8)cc6)CC5)CC4)ccc3C2=O)C(=O)N1` (stereo unspecified): the Ki in data set [1] (read-out: Ki) is 0.867 µM; in [1] (read-out: pKi (converted)), 0.832 µM. For the same compound, the inhibition in data set [2] was -8%; in [3], 2%; in data set [5] it was 0%; in data set [6] it was 6%; in data set [7] it was 26%; in data set [8] it was 28%. Also, the inhibition was 14.3% in data set [9]; 16.3% in data set [10]; 33.1% in data set [11]; 47.9% in data set [12]; 71.3% in data set [13]; 55% in [14]. In addition, the inhibition is 83.5% in data set [15], 36.6% in data set [16] and 75.9% in data set [17]. The inhibition at 10 µM in [4] turned out to be 16%.

By inhibition is commonly meant the change of the read-out against control, counted positive when it falls.
